Assay results published in PubChem BioAssay (NCI).
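Cells were grown in 96-well plates and exposed to each compound for 48 hours at five concentrations; endpoints were interpolated linearly between bracketing concentrations, or set to the highest concentration if not reached. The concentration for 50% growth inhibition is given as GI50. Definition used: TGI = concentration required for complete inhibition of growth.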

Assays:
Assay in all cases: inhibition of tumour cell growth, NCI panel, 48 h
ACHN renal = system: ACHN renal
HL-60(TB) leukemia = system: HL-60(TB) leukemia
SK-MEL-5 melanoma = system: SK-MEL-5 melanoma
SN12C renal = system: SN12C renal
CAKI-1 renal = system: CAKI-1 renal
SK-OV-3 ovarian = system: SK-OV-3 ovarian
MOLT-4 leukemia = system: MOLT-4 leukemia
SNB-19 CNS = system: SNB-19 CNS
T-47D breast = system: T-47D breast
HS 578T breast = system: HS 578T breast

COC(=O)C1=CC(O)CCC1c1ccc(OC)cc1 (stereo unspecified)
TGI (ACHN renal): > 100 µM | TGI (HL-60(TB) leukemia): > 100 µM | TGI (SK-MEL-5 melanoma): > 100 µM | TGI (SN12C renal): > 100 µM | TGI (CAKI-1 renal): > 100 µM | TGI (SK-OV-3 ovarian): > 100 µM | TGI (MOLT-4 leukemia): > 100 µM | TGI (SNB-19 CNS): > 100 µM

CCCCCCCC[N+](C)(C)Cc1ccc(C[N+](C)(C)CCCCCCCC)cc1
TGI (ACHN renal): > 100 µM | TGI (HL-60(TB) leukemia): 97.6 µM | TGI (SK-MEL-5 melanoma): > 100 µM | TGI (SN12C renal): > 100 µM | TGI (CAKI-1 renal): > 100 µM | TGI (SK-OV-3 ovarian): > 100 µM | TGI (MOLT-4 leukemia): > 100 µM | TGI (SNB-19 CNS): > 100 µM

CN1CCC23c4c5ccc(O)c4OC2C(=NN=C2CCC4(O)C6Cc7ccc(O)c8c7C4(CCN6C)C2O8)CCC3(O)C1C5 (stereo unspecified)
TGI (ACHN renal): > 100 µM | TGI (HL-60(TB) leukemia): > 100 µM | TGI (SK-MEL-5 melanoma): > 100 µM | TGI (SN12C renal): > 100 µM | TGI (CAKI-1 renal): > 100 µM | TGI (SK-OV-3 ovarian): > 100 µM | TGI (MOLT-4 leukemia): > 100 µM | TGI (SNB-19 CNS): > 100 µM

CN1C(=O)n2c(nc3ccccc32)C(N=[N+]=[N-])(N=[N+]=[N-])C1=O (stereo unspecified)
TGI (ACHN renal): > 100 µM | TGI (HL-60(TB) leukemia): > 100 µM | TGI (SK-MEL-5 melanoma): > 100 µM | TGI (CAKI-1 renal): > 100 µM | TGI (SK-OV-3 ovarian): > 100 µM | TGI (MOLT-4 leukemia): > 100 µM | TGI (SNB-19 CNS): > 100 µM

COc1cc(C(=O)C/C(CCC(=O)Nc2ccccc2[N+](=O)[O-])=N\NC(=O)C(N)=O)ccc1O
TGI (ACHN renal): > 100 µM | TGI (HL-60(TB) leukemia): > 100 µM | TGI (CAKI-1 renal): > 100 µM | TGI (SK-OV-3 ovarian): > 100 µM | TGI (MOLT-4 leukemia): > 100 µM | TGI (SNB-19 CNS): > 100 µM

CCCCCCCCCOC(=S)NC
TGI (ACHN renal): 37.6 µM | TGI (HL-60(TB) leukemia): 34.1 µM | TGI (SK-MEL-5 melanoma): 39.6 µM | TGI (SN12C renal): 36.9 µM | TGI (CAKI-1 renal): 43.1 µM | TGI (SK-OV-3 ovarian): 45.7 µM | TGI (MOLT-4 leukemia): 46.5 µM | TGI (SNB-19 CNS): > 100 µM

CCOC(=O)/C(=C/c1ccc(OC)c(OC)c1)C(=O)c1ccccc1
TGI (ACHN renal): 68.1 µM | TGI (SK-MEL-5 melanoma): 29.5 µM | TGI (CAKI-1 renal): 31.8 µM | TGI (SK-OV-3 ovarian): 73.1 µM | TGI (MOLT-4 leukemia): 48.9 µM | TGI (SNB-19 CNS): 30.1 µM

Cc1ccc(-c2csc(N(C(=O)N3CCN(c4cc5c(cc4F)c(=O)c(C(=O)O)cn5C4CC4)CC3)c3ccccc3)n2)cc1
GI50 (ACHN renal): 0.278 µM | TGI (ACHN renal): > 100 µM | GI50 (SK-MEL-5 melanoma): 0.541 µM | TGI (SK-MEL-5 melanoma): > 100 µM | GI50 (CAKI-1 renal): 0.373 µM | TGI (CAKI-1 renal): > 100 µM | GI50 (SK-OV-3 ovarian): 0.252 µM | TGI (SK-OV-3 ovarian): 0.787 µM | GI50 (T-47D breast): 0.381 µM | TGI (T-47D breast): > 100 µM | GI50 (HS 578T breast): 0.428 µM | TGI (HS 578T breast): > 100 µM | GI50 (SNB-19 CNS): 0.383 µM | TGI (SNB-19 CNS): > 60 µM

O=C(O)C1C2C=CC(O2)C1C(=O)Nc1ccccc1 (stereo unspecified)
TGI (ACHN renal): > 100 µM | TGI (SK-MEL-5 melanoma): > 100 µM | TGI (SN12C renal): > 100 µM | TGI (CAKI-1 renal): > 100 µM | TGI (SK-OV-3 ovarian): > 100 µM | TGI (T-47D breast): > 100 µM | TGI (HS 578T breast): > 100 µM | TGI (MOLT-4 leukemia): > 100 µM | TGI (SNB-19 CNS): > 100 µM

CCCCCCCCCCCCCCCCC1=CC(=O)C=C(OC)C1=O
TGI (ACHN renal): > 100 µM | TGI (HL-60(TB) leukemia): > 100 µM | TGI (SK-MEL-5 melanoma): > 100 µM | TGI (SN12C renal): > 100 µM | TGI (CAKI-1 renal): > 100 µM | TGI (SK-OV-3 ovarian): > 100 µM | TGI (HS 578T breast): > 100 µM | TGI (MOLT-4 leukemia): > 100 µM | TGI (SNB-19 CNS): > 100 µM

O=c1c(O)c(-c2ccc(O)c(O)c2)oc2cc(O)ccc12
TGI (ACHN renal): > 91 µM | TGI (HL-60(TB) leukemia): > 84.1 µM | TGI (SK-MEL-5 melanoma): 27.4 µM | TGI (SN12C renal): 56.4 µM | TGI (SK-OV-3 ovarian): 59.9 µM | TGI (MOLT-4 leukemia): > 72.5 µM | TGI (SNB-19 CNS): > 100 µM

Cc1cc(N(CCC#N)CCC#N)ccc1/C=C1/CN(N2C(=O)/C(=C/c3ccc(N(CCC#N)CCC#N)cc3C)N=C2c2ccccc2)C(c2ccccc2)=N1
TGI (ACHN renal): > 100 µM | TGI (HL-60(TB) leukemia): > 100 µM | TGI (SK-MEL-5 melanoma): > 100 µM | TGI (SN12C renal): > 100 µM | TGI (CAKI-1 renal): > 100 µM | TGI (MOLT-4 leukemia): > 100 µM | TGI (SNB-19 CNS): > 100 µM

CCN1C(=O)N(CC)C2C1NN=c1s/c(=C3\C(=O)N(CCC(C)C)c4ccccc43)c(=O)n12 (stereo unspecified)
GI50 (ACHN renal): 1.86 µM | TGI (ACHN renal): 6.7 µM | GI50 (HL-60(TB) leukemia): 2.12 µM | TGI (HL-60(TB) leukemia): 4.5 µM | GI50 (SK-MEL-5 melanoma): 1.55 µM | TGI (SK-MEL-5 melanoma): 3.41 µM | GI50 (SN12C renal): 2.01 µM | TGI (SN12C renal): 4.99 µM | GI50 (CAKI-1 renal): 0.686 µM | TGI (CAKI-1 renal): 4.17 µM | GI50 (SK-OV-3 ovarian): 2.53 µM | TGI (SK-OV-3 ovarian): 18 µM | GI50 (HS 578T breast): 1.08 µM | TGI (HS 578T breast): 4.87 µM | GI50 (MOLT-4 leukemia): 2.86 µM | TGI (MOLT-4 leukemia): > 100 µM | GI50 (SNB-19 CNS): 2.39 µM | TGI (SNB-19 CNS): 11.5 µM

O=c1oc2ccc(Cl)cc2c(=O)n1-c1ccc(Cl)cc1F
GI50 (ACHN renal): 0.512 µM | TGI (ACHN renal): 8.32 µM | GI50 (SK-MEL-5 melanoma): 0.205 µM | TGI (SK-MEL-5 melanoma): 0.486 µM | GI50 (SN12C renal): 0.431 µM | TGI (SN12C renal): 3.78 µM | GI50 (CAKI-1 renal): 0.271 µM | TGI (CAKI-1 renal): 1.67 µM | GI50 (SK-OV-3 ovarian): 0.501 µM | GI50 (T-47D breast): 0.36 µM | TGI (T-47D breast): 2.2 µM | GI50 (HS 578T breast): 0.285 µM | TGI (HS 578T breast): 1.97 µM | GI50 (MOLT-4 leukemia): 0.581 µM | TGI (MOLT-4 leukemia): 2.69 µM | GI50 (SNB-19 CNS): 0.391 µM | TGI (SNB-19 CNS): > 100 µM

CCOC(=O)C1Cc2c(ccc(OC)c2OC)C(=O)C1N (stereo unspecified)
TGI (ACHN renal): > 100 µM | TGI (HL-60(TB) leukemia): > 100 µM | TGI (SK-MEL-5 melanoma): > 100 µM | TGI (SN12C renal): > 100 µM | TGI (CAKI-1 renal): > 100 µM | TGI (SK-OV-3 ovarian): > 100 µM | TGI (MOLT-4 leukemia): > 100 µM | TGI (SNB-19 CNS): > 100 µM

COc1ccccc1/C=C/C(=O)c1sc(-c2cccnc2)nc1C
TGI (ACHN renal): > 100 µM | TGI (HL-60(TB) leukemia): > 100 µM | TGI (SK-MEL-5 melanoma): > 100 µM | TGI (SN12C renal): > 100 µM | TGI (CAKI-1 renal): > 100 µM | TGI (SK-OV-3 ovarian): > 100 µM | TGI (MOLT-4 leukemia): > 100 µM

CCOC(=O)C12CCCC1(O)N(NC(=O)c1cccc(Cl)c1)C(C)=C2C(=O)OC (stereo unspecified)
TGI (ACHN renal): > 100 µM | TGI (HL-60(TB) leukemia): > 100 µM | TGI (SK-MEL-5 melanoma): > 100 µM | TGI (SN12C renal): > 100 µM | TGI (CAKI-1 renal): > 100 µM | TGI (SK-OV-3 ovarian): > 100 µM | TGI (MOLT-4 leukemia): > 100 µM | TGI (SNB-19 CNS): > 100 µM

CCCC(OCC)(OCC)OCC
TGI (ACHN renal): > 100 µM | TGI (HL-60(TB) leukemia): > 100 µM | TGI (SK-MEL-5 melanoma): > 100 µM | TGI (SN12C renal): > 100 µM | TGI (CAKI-1 renal): > 100 µM | TGI (SK-OV-3 ovarian): > 100 µM | TGI (MOLT-4 leukemia): > 100 µM | TGI (SNB-19 CNS): > 100 µM

O=C(O)/C(Cl)=C(\Cl)Nc1cccc(C(F)(F)F)c1
TGI (ACHN renal): > 100 µM | TGI (HL-60(TB) leukemia): > 100 µM | TGI (SN12C renal): > 100 µM | TGI (CAKI-1 renal): > 100 µM | TGI (SK-OV-3 ovarian): > 100 µM

COc1cc2[nH]c(C(=O)c3cc(OC)c(OC)c(OC)c3)c(N)c2cc1C#CCO
GI50 (ACHN renal): 0.515 µM | TGI (ACHN renal): > 100 µM | GI50 (HL-60(TB) leukemia): 0.313 µM | TGI (HL-60(TB) leukemia): 0.956 µM | GI50 (SK-MEL-5 melanoma): 0.087 µM | TGI (SK-MEL-5 melanoma): 1.3 µM | GI50 (SN12C renal): 1.4 µM | TGI (SN12C renal): 98.3 µM | GI50 (CAKI-1 renal): 0.537 µM | TGI (CAKI-1 renal): > 100 µM | GI50 (SK-OV-3 ovarian): 0.482 µM | TGI (SK-OV-3 ovarian): > 100 µM | GI50 (HS 578T breast): 0.345 µM | TGI (HS 578T breast): 72.3 µM | GI50 (MOLT-4 leukemia): 0.649 µM | TGI (MOLT-4 leukemia): > 100 µM | GI50 (SNB-19 CNS): 0.41 µM | TGI (SNB-19 CNS): > 100 µM

Oc1c(Br)cc(Br)cc1CN(Cc1cc(Br)cc(Br)c1O)C1CCCCC1
TGI (ACHN renal): > 100 µM | TGI (SK-MEL-5 melanoma): 34.6 µM | TGI (SN12C renal): > 100 µM | TGI (CAKI-1 renal): > 100 µM | TGI (SK-OV-3 ovarian): > 100 µM | TGI (T-47D breast): > 100 µM | TGI (HS 578T breast): 53 µM | TGI (MOLT-4 leukemia): > 100 µM | TGI (SNB-19 CNS): > 100 µM

CSc1nc(NC2OCC(OC(C)=O)C(OC(C)=O)C2OC(C)=O)c(N=CC=Nc2c(NC3OCC(OC(C)=O)C(OC(C)=O)C3OC(C)=O)nc(SC)n(C)c2=O)c(=O)n1C (stereo unspecified)
TGI (ACHN renal): > 100 µM | TGI (HL-60(TB) leukemia): > 100 µM | TGI (SK-MEL-5 melanoma): > 100 µM | TGI (SN12C renal): > 100 µM | TGI (SK-OV-3 ovarian): > 100 µM | TGI (SNB-19 CNS): > 100 µM
